# Experimental data: PubChem BioAssay (NCI)
#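 Step 1: Grow cells in 96-well plates. Step 2: Expose to compound for 48 hours at 5 concentrations. Step 3: Interpolate endpoints linearly; if unreached, use highest concentration. TGI: concentration producing complete growth inhibition.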
# Legend:
# Test in all cases: DTP human tumour cell line panel, 48 h
# [1] = system: NCI-H460 lung
# [2] = system: OVCAR-8 ovarian
# [3] = system: A549 NSCLC
# [4] = system: MDA-MB-231 breast
# [5] = system: TK-10 renal
# [6] = system: UACC-257 melanoma
# [7] = system: RXF 393 renal
# [8] = system: HS 578T breast
# [9] = system: SK-MEL-2 melanoma
# [10] = system: HOP-62 NSCLC
# [11] = system: K-562 leukemia
# [12] = system: SF-295 CNS
# [13] = system: SNB-75 CNS
# [14] = system: NCI/ADR-RES ovarian
# [15] = system: HT29 colon
# [16] = system: HOP-92 NSCLC
# [17] = system: MCF7 breast
# [18] = system: CAKI-1 renal
# [19] = system: SR leukemia
# [20] = system: U251 CNS
# [21] = system: HCT-116 colon
# [22] = system: SK-MEL-5 melanoma
# [23] = system: HCT-15 colon
# [24] = system: NCI-H226 lung
# [25] = system: 786-0 renal
# [26] = system: MDA-N
# [27] = system: CCRF-CEM leukemia
# [28] = system: MALME-3M melanoma
# [29] = system: A498 renal
# [30] = system: T-47D breast
# [31] = system: PC-3 prostate
# [32] = system: SF-539 CNS
# [33] = system: RPMI-8226 leukemia
# [34] = system: SK-MEL-28 melanoma
# [35] = system: BT-549 breast
# [36] = system: NCI-H522 lung
# [37] = system: NCI-H23 lung
# [38] = system: MDA-MB-435
# [39] = system: ACHN renal
# [40] = system: KM12 colon
# [41] = system: HCC-2998 colon
# [42] = system: OVCAR-3 ovarian
# [43] = system: SW-620 colon
# [44] = system: COLO 205 colon
# [45] = system: HL-60(TB) leukemia
# [46] = system: UACC-62 melanoma
# [47] = system: EKVX NSCLC
# [48] = system: IGROV1 ovarian
# [49] = system: SN12C renal
# [50] = system: LOX IMVI melanoma
# [51] = system: OVCAR-5 ovarian
# [52] = system: UO-31 renal
# [53] = system: SF-268 CNS
# [54] = system: MOLT-4 leukemia
# [55] = system: OVCAR-4 ovarian
# [56] = system: DU-145 prostate
# [57] = system: M14 melanoma
# [58] = system: SNB-19 CNS
# [59] = system: SK-OV-3 ovarian
smiles,measurement,setting,value
CC(C)(CO)CNc1nc(N)nc(Cl)c1C=O,TGI,[1],> 100 µM
same,TGI,[2],68.1 µM
same,TGI,[3],> 100 µM
same,TGI,[4],> 100 µM
same,TGI,[5],> 100 µM
same,TGI,[6],> 100 µM
same,TGI,[7],44.9 µM
same,TGI,[8],70.7 µM
same,TGI,[9],39.2 µM
same,TGI,[10],46.1 µM
same,TGI,[11],> 100 µM
same,TGI,[12],> 100 µM
same,TGI,[13],> 100 µM
same,TGI,[14],> 100 µM
same,TGI,[15],> 100 µM
same,TGI,[16],77.3 µM
same,TGI,[17],> 100 µM
same,TGI,[18],52.6 µM
same,TGI,[19],66.6 µM
same,TGI,[20],> 100 µM
same,TGI,[21],40.1 µM
same,TGI,[22],> 100 µM
same,TGI,[23],45 µM
same,TGI,[24],> 100 µM
same,TGI,[25],> 100 µM
same,TGI,[26],72.2 µM
same,TGI,[27],83.9 µM
same,TGI,[28],> 100 µM
same,TGI,[29],> 100 µM
same,TGI,[30],> 100 µM
same,TGI,[31],41.3 µM
same,TGI,[32],> 100 µM
same,TGI,[33],> 100 µM
same,TGI,[34],83.8 µM
same,TGI,[35],> 100 µM
same,TGI,[36],23.5 µM
same,TGI,[37],> 100 µM
same,TGI,[38],66.5 µM
same,TGI,[39],> 100 µM
same,TGI,[40],> 100 µM
same,TGI,[41],21.3 µM
same,TGI,[42],62.8 µM
same,TGI,[43],> 100 µM
same,TGI,[44],72.2 µM
same,TGI,[45],17.7 µM
same,TGI,[46],32.6 µM
same,TGI,[47],> 100 µM
same,TGI,[48],46.4 µM
same,TGI,[49],55.3 µM
same,TGI,[50],33.8 µM
same,TGI,[51],> 100 µM
same,TGI,[52],> 100 µM
same,TGI,[53],42.2 µM
same,TGI,[54],59 µM
same,TGI,[55],> 100 µM
same,TGI,[56],> 100 µM
O=C(N/N=C\c1ccc([N+](=O)[O-])cc1)Nc1ccc2ccccc2c1,TGI,[1],36.2 µM
same,TGI,[2],> 100 µM
same,TGI,[3],> 100 µM
same,TGI,[4],63.8 µM
same,TGI,[5],91.3 µM
same,TGI,[6],> 100 µM
same,TGI,[7],> 100 µM
same,TGI,[8],70.6 µM
same,TGI,[9],> 100 µM
same,TGI,[10],51.2 µM
same,TGI,[11],> 100 µM
same,TGI,[12],> 100 µM
same,TGI,[13],68.1 µM
same,TGI,[14],> 100 µM
same,TGI,[15],72.2 µM
same,TGI,[16],54.4 µM
same,TGI,[17],> 100 µM
same,TGI,[18],> 100 µM
same,TGI,[19],> 100 µM
same,TGI,[20],45.8 µM
same,TGI,[21],63.3 µM
same,TGI,[57],> 100 µM
same,TGI,[22],> 100 µM
same,TGI,[23],> 100 µM
same,TGI,[58],> 100 µM
same,TGI,[24],> 100 µM
same,TGI,[25],32.7 µM
same,TGI,[26],> 100 µM
same,TGI,[27],> 100 µM
same,TGI,[28],51.7 µM
same,TGI,[29],56.8 µM
same,TGI,[30],> 100 µM
same,TGI,[31],> 100 µM
same,TGI,[59],89.1 µM
same,TGI,[32],47.6 µM
same,TGI,[33],> 100 µM
same,TGI,[34],> 100 µM
same,TGI,[35],> 100 µM
same,TGI,[36],68.4 µM
same,TGI,[37],> 100 µM
same,TGI,[38],> 100 µM
same,TGI,[39],> 100 µM
same,TGI,[40],67.3 µM
same,TGI,[41],62.9 µM
same,TGI,[42],> 100 µM
same,TGI,[43],53.6 µM
same,TGI,[44],71.3 µM
same,TGI,[46],> 100 µM
same,TGI,[47],> 100 µM
same,TGI,[48],> 100 µM
same,TGI,[49],> 100 µM
same,TGI,[50],> 100 µM
same,TGI,[51],> 100 µM
same,TGI,[52],> 100 µM
same,TGI,[53],> 100 µM
same,TGI,[54],> 100 µM
same,TGI,[55],46.2 µM
same,TGI,[56],> 100 µM
